Patent publication US4877779A, “2-aminomethylalkynylalkyl-1,3-dithiane derivatives” (priority 1988, dated 1989)
Structures can show the parent of a compound that is named as a salt.

target: T1, calcium channel (guinea-pig isolated ileal longitudinal smooth muscle) (Cavia porcellus, UniProt O35505); assay: Calcium Channel Antagonist Activity in Guinea-Pig Isolated Ileal Smooth Muscle; assay type: cell-based; settings: not given
T1 construct: The longitudinal smooth muscle is carefully separated from the underlying circular muscle layer; from tissue; host or cells: guinea-pig ileal longitudinal smooth muscle
T1 sequence (O35505 whole entry): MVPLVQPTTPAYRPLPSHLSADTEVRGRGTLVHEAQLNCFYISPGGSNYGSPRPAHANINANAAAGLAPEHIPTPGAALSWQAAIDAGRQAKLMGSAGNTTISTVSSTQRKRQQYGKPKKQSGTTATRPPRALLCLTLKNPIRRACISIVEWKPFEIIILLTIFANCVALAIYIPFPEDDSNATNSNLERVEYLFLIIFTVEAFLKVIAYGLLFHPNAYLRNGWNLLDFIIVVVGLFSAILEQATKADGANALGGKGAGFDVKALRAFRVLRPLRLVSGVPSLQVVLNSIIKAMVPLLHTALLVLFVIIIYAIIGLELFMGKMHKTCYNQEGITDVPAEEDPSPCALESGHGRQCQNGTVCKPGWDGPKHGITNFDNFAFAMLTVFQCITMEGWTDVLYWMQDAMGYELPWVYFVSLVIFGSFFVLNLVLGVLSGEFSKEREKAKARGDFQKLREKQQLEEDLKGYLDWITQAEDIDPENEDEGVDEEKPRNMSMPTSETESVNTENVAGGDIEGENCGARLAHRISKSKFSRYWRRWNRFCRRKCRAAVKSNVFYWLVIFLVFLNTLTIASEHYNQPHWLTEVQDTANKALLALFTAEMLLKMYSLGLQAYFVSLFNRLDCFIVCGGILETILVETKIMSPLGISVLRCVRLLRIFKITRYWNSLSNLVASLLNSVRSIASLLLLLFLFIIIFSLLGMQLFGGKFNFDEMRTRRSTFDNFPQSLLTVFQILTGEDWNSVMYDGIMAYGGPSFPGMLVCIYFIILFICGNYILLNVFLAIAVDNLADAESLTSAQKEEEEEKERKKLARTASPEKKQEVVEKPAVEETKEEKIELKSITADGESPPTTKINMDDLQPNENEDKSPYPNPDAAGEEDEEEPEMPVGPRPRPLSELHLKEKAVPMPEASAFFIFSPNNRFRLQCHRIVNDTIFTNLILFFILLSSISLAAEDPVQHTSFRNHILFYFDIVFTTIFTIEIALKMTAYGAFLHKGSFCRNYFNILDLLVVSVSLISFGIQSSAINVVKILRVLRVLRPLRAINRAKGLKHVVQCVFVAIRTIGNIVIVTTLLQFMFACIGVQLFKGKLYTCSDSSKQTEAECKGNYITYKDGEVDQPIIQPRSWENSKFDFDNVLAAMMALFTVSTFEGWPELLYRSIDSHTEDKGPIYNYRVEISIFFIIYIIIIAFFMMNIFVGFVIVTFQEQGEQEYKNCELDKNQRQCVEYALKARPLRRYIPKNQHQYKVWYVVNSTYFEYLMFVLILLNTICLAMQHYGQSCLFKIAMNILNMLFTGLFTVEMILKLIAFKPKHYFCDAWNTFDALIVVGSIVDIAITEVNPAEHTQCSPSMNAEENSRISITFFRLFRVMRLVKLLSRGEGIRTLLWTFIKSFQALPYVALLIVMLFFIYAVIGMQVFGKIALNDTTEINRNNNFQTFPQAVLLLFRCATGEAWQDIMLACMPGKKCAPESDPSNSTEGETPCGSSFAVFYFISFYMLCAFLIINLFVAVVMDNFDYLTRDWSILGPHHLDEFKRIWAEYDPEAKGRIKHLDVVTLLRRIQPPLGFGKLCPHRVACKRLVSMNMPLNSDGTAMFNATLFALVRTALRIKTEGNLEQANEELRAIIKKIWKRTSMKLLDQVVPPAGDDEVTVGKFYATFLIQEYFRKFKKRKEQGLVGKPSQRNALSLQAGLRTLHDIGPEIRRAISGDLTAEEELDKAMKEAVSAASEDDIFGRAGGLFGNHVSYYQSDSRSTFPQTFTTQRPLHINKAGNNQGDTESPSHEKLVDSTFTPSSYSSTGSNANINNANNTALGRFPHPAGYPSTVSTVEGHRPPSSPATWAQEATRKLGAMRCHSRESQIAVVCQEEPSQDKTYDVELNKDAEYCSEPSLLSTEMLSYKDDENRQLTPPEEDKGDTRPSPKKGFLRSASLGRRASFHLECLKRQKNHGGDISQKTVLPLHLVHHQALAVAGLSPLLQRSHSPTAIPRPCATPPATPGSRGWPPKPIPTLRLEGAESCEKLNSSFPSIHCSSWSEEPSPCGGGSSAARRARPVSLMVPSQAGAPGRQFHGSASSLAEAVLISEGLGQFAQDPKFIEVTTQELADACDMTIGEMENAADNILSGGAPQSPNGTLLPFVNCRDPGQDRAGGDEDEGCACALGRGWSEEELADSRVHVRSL
Text: Calcium Channel Antagonist Activity in Guinea-Pig Isolated Ileal Smooth Muscle.
Male albino guinea-pigs are sacrificed by stunning and exsanguination. The abdominal cavity is opened and the small intestine is removed, with about 10 cm of the terminal ileum being discarded. The tissue is placed in a dish containing Tyrode's solution (composition, mM: […]; KCl 2.68; NaHCO3 11.90; NaH2 PO4 0.36; MgCl2 0.98; CaCl2 1.77; dextrose 5.55), and cut into three to four segments. A glass rod (6 mm diameter) is carefully inserted into the lumen of each segment, and excess connective tissue or fat is removed. The longitudinal smooth muscle is carefully separated from the underlying circular muscle layer by gently stroking a moist cotton swab on a tangent to shallow, longitudinal incisions made parallel to the mesenteric attachment. Using gentle traction, and taking care to keep the segment moist at all times, the preparation is stripped from the remaining length of the ileal segment (Paton & Zar, J. Physiol. 194, 13; 1968).
Each preparation is suspended in a 10 mL jacketed glass tissue bath containing Tyrode's solution maintained at 37° C. and gassed with 5% CO2 in O2. The preparation is attached by silk thread to a force-displacement transducer. […] The initial resting tension is adjusted to 0.5 g and the preparation equilibrated for 55 minutes prior to experimentation. At the end of this period, the bathing solution is replaced with Ca^2+ -free Tyrode's solution. This solution is prepared by omitting CaCl2. The preparation is washed four times in Ca^2+ -free Tyrode 's to remove any Ca^2+ remaining in the bath, and allowed to equilibrate for a further 20 minutes.
Concentration-response curves to CaCl2 are obtained using the following procedure. Preparations are exposed to a depolarizing concentration of KCl (80 mM) for 6 minutes. At the end of this period CaCl2 is added to the bath cumulatively in the concentration range 0.2-8.0 mM. Successive additions of each Ca^2+ concentration are carried out only when the previous response has reached a plateau. When the maximum response has been attained the bath is again washed (five times) with Ca^2+ -free buffer, and the preparation re-equilibrated for approximately 15 minutes. A second Ca^2+ concentration-response curve is then obtained in the same manner. This second curve serves as control for that tissue.
Further curves are obtained in the presence of increasing concentrations of the test drugs. Where appropriate, the test drug is added to the bath immediately following addition of KCl, and 6 minutes later the concentration-response curve to Ca^2+ is obtained. Each test preparation is exposed to three different concentrations of a test drug.
For each ileal preparation, the control EC50 for Ca^2+ (the concentration producing 50% of the maximum response) is determined from the control concentration-response curve. Calcium blocking activity is defined as a Kb value (the concentration producing a two-fold dextral shift in the control curve), calculated from EC50 ratios in the absence and presence of test drugs.

SMILES | Kb [nM]
CCN(CC)CC#CCCC1(C2(O)c3ccccc3Oc3ccccc32)SCCCS1 [2-(5-Diethylaminopent-3-ynyl)-2-(9-hydroxy-9H-xanthen-9-yl)-1,3-dithiane] | 156 ± 30

same assay, conditions: Kb = concentration producing a two-fold dextral shift in the control CaCl2 concentration-response curve; KCl (80 mM) depolarized ileal smooth muscle; read-out: Calcium antagonist Kb

SMILES | Kb [nM]
CN(CC#CCCC1SCCCS1)Cc1cccc2ccccc12 [2-[5-(1-Naphthylmethyl)methylaminopent-3-ynyl]-1,3-dithiane Oxalate] | > 10000
CN(CC#CCCC1SCCCS1)Cc1ccc2ccccc2c1 [2-[5-(2-Naphthylmethyl)methylaminopent-3-ynyl]-1,3-dithiane Oxalate] | 8330 ± 2040
CN(CC#CCCC1SCCCS1)CCc1ccccc1 [2-[5-(2-Phenylethyl)methylaminopent-3-ynyl]-1,3-dithiane Oxalate] | 2270 ± 730
CN(CC#CCCC1(C(O)(c2ccccc2)C2CCCCC2)SCCCS1)CCc1ccccc1 (stereo not drawn) [2-[5-(2-Phenylethyl)methylaminopent-3-ynyl]-2-(α-cyclohexyl-α-hydroxybenzyl)-1,3-dithiane Oxalate] | 3750 ± 1250
CN(CC#CCCC1(C(O)(c2ccccc2)c2ccccc2)SCCCS1)CCc1ccccc1 [2-[5-(2-Phenylethyl)methylaminopent-3-ynyl]-2-(α-hydroxy-α-phenylbenzyl)-1,3-dithiane Oxalate Hemihydrate] | 2650 ± 1210
CN(CC#CCCC1(c2ccccc2)SCCCS1)CCc1ccccc1 [2-[5-(2-Phenylethyl)methylaminopent-3-ynyl]-2-phenyl-1,3-dithiane Oxalate] | 1740 ± 1080
CN(CC#CCCC1SCCCS1)CCCc1ccccc1 [2-[5-(3-Phenylpropyl)methylaminopent-3-ynyl]-1,3-dithiane Oxalate] | 2980 ± 590
CN(CC#CCCC1(C(O)(c2ccccc2)c2ccccc2)SCCCS1)CCCc1ccccc1 [2-[5-(3-Phenylpropyl)methylaminopent-3-ynyl]-2-(9-hydroxy-9-phenylbenzyl)-1,3-dithiane Oxalate] | 1630 ± 880
CN(CC#CCCC1(C2(O)c3ccccc3Sc3ccccc32)SCCCS1)CCCc1ccccc1 [2-[5-(3-Phenylpropyl)methylaminopent-3-ynyl]-2-(9-hydroxy-9H-thioxanthen-9-yl)-1,3-dithiane] | 4160 ± 860
CN(CC#CCCC1(C2(O)c3ccccc3Oc3ccccc32)SCCCS1)CCCc1ccccc1 [2-[5-(3-Phenylpropyl)methylaminopent-3-ynyl]-2-(9-hydroxy-9H-xanthen-9-yl)-1,3-dithiane] | 3090 ± 990
CN(CC#CCCC1(C2(O)c3ccccc3Sc3ccc(Cl)cc32)SCCCS1)CCCc1ccccc1 (stereo not shown) [2-[5-(3Phenylpropyl)methylaminopent-3-ynyl)-2-(2-chloro-9-hydroxy-9H-thioxanthen-9-yl)-1,3-dithiane Hemioxalate] | > 7000
CN1CCN(CC#CCCC2SCCCS2)CC1 [2-[5-(4-Methylpiperazinyl)pent-3-ynyl]-1,3-dithiane Dioxalate] | > 10000
CN1CCN(CC#CCCC2(C3(O)c4ccccc4Oc4ccccc43)SCCCS2)CC1 [2-[5-(4-Methylpiperazinyl)pent-3-ynyl]-2-(9-hydroxy-9H-xanthen-9-yl)-1,3-dithiane Dioxalate] | 488 ± 30
CN(CC#CCCC1SCCCS1)CCCCc1ccccc1 [2-[5-(4-Phenylbutyl)methylaminopent-3-ynyl]-1,3-dithiane Oxalate] | 3430 ± 830
CN(CC#CCCC1SCCCS1)Cc1ccccc1 [2-[5-(Benzylmethylaminopent-3-ynyl]-1,3-dithiane Oxalate] | 8020 ± 2740
CN(CC#CCCC1(C(O)(c2ccccc2)c2ccccc2)SCCCS1)Cc1ccccc1 [2-[5-(Benzylmethylaminopent-3-ynyl]-2-(α-hydroxy-α-phenylbenzyl)-1,3-dithiane Oxalate Hemihydrate] | 3170 ± 760
COc1ccc(CCN(C)CC#CCCC2SCCCS2)cc1OC [2-[5-[2-(3,4-Dimethoxyphenyl)ethyl]methylaminopent-3-ynyl]-1,3-dithiane Oxalate] | 2220 ± 70
OCCN1CCN(CC#CCCC2SCCCS2)CC1 [2-[5-[4-(2-Hydroxyethyl)piperazinyl]pent-3-ynyl]-1,3-dithiane Dioxalate] | > 10000
CN(CC#CCCCC1SCCCS1)CCc1ccccc1 [2-[6-(2-Phenylethyl)methylaminohex-4-ynyl]-1,3-dithiane Oxalate] | 4180 ± 1540
CN(CC#CCCC(O)(c1ccccc1)C1SCCCS1)CCc1ccccc1 (stereo not shown) [2-[6-(2-phenylethyl)methylamino-1-hydroxy-1-phenyl-hex-4-ynyl]-1,3-dithiane oxalate hemihydrate] | 2250 ± 530
COc1ccc(CCN(C)CC#CCCC(O[Si](C)(C)C)(c2ccccc2)C2SCCCS2)cc1OC (stereo not shown) [2-[6-[2-(3,4-Dimethoxyphenyl)ethyl]methylamino-1-phenyl-1-trimethylsilyloxyhex-4-ynyl]-1,3-dithiane] | 570 ± 30
COc1ccc(CCN(C)CC#CCCC(O)(c2ccccc2)C2SCCCS2)cc1OC (stereo not shown) [2[6-[2-(3,4-dimethoxyphenyl)ethyl]methylamino-1-hydroxy-1-phenylhex-4-ynyl]-1,3-dithiane] | 1230 ± 530

test system: substance P-induced Cl- ion secretion by guinea-pig isolated ileal mucosa; assay: not given; assay type: cell-based; settings: antagonist 5 μM serosal and mucosal, 5 minutes prior to substance P (1 μM)

SMILES | percent inhibition of substance P-induced increase in Isc [%]
CCN(CC)CC#CCCC1(C2(O)c3ccccc3Oc3ccccc32)SCCCS1 [2-(5-Diethylaminopent-3-ynyl)-2-(9-hydroxy-9H-xanthen-9-yl)-1,3-dithiane] | 55.2
CN(C)C(=O)C(CCN1CCC(O)(c2ccc(Cl)cc2)CC1)(c1ccccc1)c1ccccc1 [loperamide, reference compound] | 36.1

test system: Serotonin-Induced Diarrhea in Mice; assay: Inhibition of Serotonin-Induced Diarrhea in Mice; assay type: in vivo, Male CF1 mice; settings: Mus musculus, ip, 0.5 h, read-out: ED50 (95% confidence limits)
Procedure: Inhibition of Serotonin-Induced Diarrhea in Mice.
. The mice were weighed and an average weight was used to calculate the amount of drug to be administered. Drugs were prepared in isotonic saline or an appropriate vehicle at varying concentrations and were administered intraperitoneally. Control animals were given vehicles without any test drug. Serotonin was given intraperitoneally (i.p.) in all cases 30 minutes after i.p. administration of test drug. Mice were placed in individual cages containing racks and paper liners with free access to water. Mice were observed after 30 minutes, 60 minutes and 180 minutes and graded for presence or absence of diarrhea. The grading system consisted of positive (+), negative (-) and (±) based on consistency and liquid staining. The ED50 (effective dose in 50% of population) was calculated for each test drug using the method of Litchfield-Wilcoxin. […]

SMILES | ED50 [mg/kg]
CCN(CC)CC#CCCC1(C2(O)c3ccccc3Oc3ccccc32)SCCCS1 [2-(5-Diethylaminopent-3-ynyl)-2-(9-hydroxy-9H-xanthen-9-yl)-1,3-dithiane] | 20.7

same assay, conditions: Mus musculus, ip, 0.5 h; i.p., serotonin i.p. 30 minutes after test drug; mice; Litchfield-Wilcoxin; read-out: ED50 (95% confidence limits)

SMILES | ED50 [mg/kg]
CN(C)C(=O)C(CCN1CCC(O)(c2ccc(Cl)cc2)CC1)(c1ccccc1)c1ccccc1 [loperamide, reference compound] | 0.16
COc1ccc(CCN(C)CCCC(C#N)(c2ccc(OC)c(OC)c2)C(C)C)cc1OC (stereo not shown) [verapamil] | 13.3
